Here are results for 26 compounds from US11236046B2, “Substituted heterocyclic sulfonamide compounds useful as TRPA1 modulators” (Genentech, Inc., priority 2013, dated 2022).

human TRPA1, sequence (O75762 whole entry): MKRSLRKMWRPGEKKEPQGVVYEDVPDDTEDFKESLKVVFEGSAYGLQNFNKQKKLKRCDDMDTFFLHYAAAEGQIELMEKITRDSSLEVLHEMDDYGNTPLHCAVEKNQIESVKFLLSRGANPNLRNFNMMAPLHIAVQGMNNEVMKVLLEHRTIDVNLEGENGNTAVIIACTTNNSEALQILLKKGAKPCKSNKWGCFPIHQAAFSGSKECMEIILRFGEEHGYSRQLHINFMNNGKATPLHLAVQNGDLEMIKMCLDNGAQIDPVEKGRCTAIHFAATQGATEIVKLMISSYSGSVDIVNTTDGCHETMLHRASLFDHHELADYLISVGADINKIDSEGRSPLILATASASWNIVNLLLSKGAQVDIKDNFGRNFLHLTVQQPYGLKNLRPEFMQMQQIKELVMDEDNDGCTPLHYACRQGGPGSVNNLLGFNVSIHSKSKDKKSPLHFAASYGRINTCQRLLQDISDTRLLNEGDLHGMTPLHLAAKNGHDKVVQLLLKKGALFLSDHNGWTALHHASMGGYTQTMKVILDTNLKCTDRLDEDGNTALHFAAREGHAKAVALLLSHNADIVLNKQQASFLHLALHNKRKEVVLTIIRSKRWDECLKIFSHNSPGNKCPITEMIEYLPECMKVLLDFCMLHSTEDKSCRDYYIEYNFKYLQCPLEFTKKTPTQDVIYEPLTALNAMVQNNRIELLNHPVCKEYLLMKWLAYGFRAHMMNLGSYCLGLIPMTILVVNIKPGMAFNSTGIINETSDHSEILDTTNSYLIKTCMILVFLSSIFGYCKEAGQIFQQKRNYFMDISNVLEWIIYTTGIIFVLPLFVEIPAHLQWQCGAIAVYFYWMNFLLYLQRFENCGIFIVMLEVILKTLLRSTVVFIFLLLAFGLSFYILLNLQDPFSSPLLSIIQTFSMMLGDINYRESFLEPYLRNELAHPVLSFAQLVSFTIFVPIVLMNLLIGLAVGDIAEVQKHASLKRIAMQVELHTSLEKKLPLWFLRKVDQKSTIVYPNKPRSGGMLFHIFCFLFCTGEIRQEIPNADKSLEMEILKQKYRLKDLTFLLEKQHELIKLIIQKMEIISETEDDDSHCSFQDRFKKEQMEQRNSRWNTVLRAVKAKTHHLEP

The assay concerns the target human TRPA1 (Homo sapiens (Human), UniProt O75762). The assay is described as follows: FLIPR Tetra calcium influx assay, block of cinnamaldehyde-induced calcium influx in CHO cells expressing TRPA1 (human). The settings on record: 20 min compound incubation, 75 uM cinnamaldehyde (~EC80), Hill coefficient fixed to 1.5, read-out: hTRPA1 AUC IC50. Type of assay: cell-based. In a few lines: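 CHO cells loaded with calcium dye, preincubated with compounds 20 min at room temperature in HBSS/20 mM HEPES pH 7.4 with 0.02% BSA. Channels activated by ~EC80 cinnamaldehyde (75 uM human, 45 uM rat); block of calcium influx read on FLIPR Tetra, IC50 fitted with fixed Hill coefficient.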
As usually defined, the IC50 is the point on the concentration scale where inhibition reaches its midpoint. With `O=C(NCc1cc(N2CCC(C(F)(F)F)CC2)c(F)cn1)[C@@H]1C[C@@H](F)CN1S(=O)(=O)c1ccc(F)cc1` [Example 144, (2S,4R)-4-fluoro-N-((5-fluoro-4-(4-(trifluoromethyl)piperidin-1-yl)pyridin-2-yl)methyl)-1-(4-fluorophenylsulfonyl)pyrrolidine-2-carboxamide], the IC50 came to 56 nM.

`O=C(NCc1cc(-c2ccc(OC(F)(F)F)cc2)ncn1)[C@@H]1C[C@@H](F)CN1S(=O)(=O)c1ccc(F)cc1` [Example 145, (2S,4R)-4-fluoro-1-(4-fluorophenylsulfonyl)-N-((6-(4-(trifluoromethoxy)phenyl)pyrimidin-4-yl)methyl)pyrrolidine-2-carboxamide]: the IC50 came out at 21 nM.

Regarding `O=C(NCc1cn(-c2ccc(C(F)(F)F)nc2)nc1Cl)[C@@H]1C[C@@H](F)CN1S(=O)(=O)c1ccc(F)cc1` [Example 146, (2S,4R)—N-([3-chloro-1-[6-(trifluoromethyl)pyridin-3-yl]-1H-pyrazol-4-yl]methyl)-4-fluoro-1-[(4-fluorobenzene)sulfonyl]pyrrolidine-2-carboxamide], the half-inhibitory concentration (IC50) was found to be 78 nM.

As to `O=C(NCc1cc(-c2ccc(SC(F)(F)F)cc2)ncn1)[C@@H]1C[C@@H](F)CN1S(=O)(=O)c1ccc(F)cc1` [Example 147, (2S,4R)-4-fluoro-1-(4-fluorophenylsulfonyl)-N-((6-(4-(trifluoromethylthio)phenyl)pyrimidin-4-yl)methyl)pyrrolidine-2-carboxamide], the IC50 was 49 nM.

On to `O=C(NCc1cc(C2=CCC(C(F)(F)F)CC2)ncn1)[C@@H]1C[C@@H](F)CN1S(=O)(=O)c1ccc(F)cc1` (stereo partly drawn) [Example 148, (2S,4R)-4-fluoro-1-(4-fluorophenylsulfonyl)-N-((6-(4-(trifluoromethyl)cyclohex-1-enyl)pyrimidin-4-yl)methyl)pyrrolidine-2-carboxamide], for which the IC50 came out at 46 nM.

On to `O=C(NCc1cc(-c2ccc(C(F)(F)F)cc2)ncn1)[C@@H]1C[C@@H](F)CN1S(=O)(=O)c1ccc(F)c(F)c1` [Example 150, (2S,4R)-1-(3,4-difluorophenylsulfonyl)-4-fluoro-N-((6-(4-(trifluoromethyl)phenyl)pyrimidin-4-yl)methyl)pyrrolidine-2-carboxamide], for which the IC50 was 46 nM.

With `O=C(NCc1cn(-c2ccc(C(F)(F)F)nc2)nc1C1CC1)[C@@H]1C[C@@H](F)CN1S(=O)(=O)c1ccc(F)cc1` [Example 151, (2S,4R)—N-([3-cyclopropyl-1-[6-(trifluoromethyl)pyridin-3-yl]-1H-pyrazol-4-yl]methyl)-4-fluoro-1-[(4-fluorobenzene)sulfonyl]pyrrolidine-2-carboxamide], the IC50 was determined as 161 nM.

Turning to `Cc1nc(CNC(=O)[C@@H]2C[C@@H](F)CN2S(=O)(=O)c2ccc(F)cc2)cc(-c2ccc(C(F)(F)F)nc2)n1` [Example 152, (2S,4R)-4-fluoro-1-(4-fluorophenylsulfonyl)-N-((2-methyl-6-(6-(trifluoromethyl)pyridin-3-yl)pyrimidin-4-yl)methyl)pyrrolidine-2-carboxamide], the half-inhibitory concentration (IC50) stood at 163 nM.

In the case of `COc1nn(-c2ccc(C(F)(F)F)nc2)cc1CNC(=O)[C@@H]1C[C@@H](F)CN1S(=O)(=O)c1ccc(F)cc1` [Example 153, (2S,4R)-4-fluoro-1-[(4-fluorobenzene)sulfonyl]-N-([3-methoxy-1-[6-(trifluoromethyl)pyridin-3-yl]-1H-pyrazol-4-yl]methyl)pyrrolidine-2-carboxamide], the IC50 was determined as 68 nM.

As for `O=C(NCc1cc(-c2ccc(C(F)(F)F)nc2)ncn1)[C@@H]1C[C@@H](F)CN1S(=O)(=O)c1ccc(F)cc1` [Example 154, (2S,4R)-4-fluoro-1-(4-fluorophenylsulfonyl)-N-((6-(6-(trifluoromethyl)pyridin-3-yl)pyrimidin-4-yl)methyl)pyrrolidine-2-carboxamide], the IC50 was found to be 97 nM.

For `O=C(NCc1cc(-c2ccc(C3CC3)cc2)ncn1)[C@@H]1C[C@@H](F)CN1S(=O)(=O)c1ccc(F)cc1` [Example 155, (2S,4R)—N-((6-(4-cyclopropylphenyl)pyrimidin-4-yl)methyl)-4-fluoro-1-(4-fluorophenylsulfonyl)pyrrolidine-2-carboxamide], the concentration for half-maximal inhibition (IC50) came out at 134 nM.

Consider `O=C(NCc1cc(-c2ccc(C(F)(F)F)nc2)ncn1)[C@@H]1C[C@@H](F)CN1S(=O)(=O)c1ccc(F)c(F)c1` [Example 156, (2S,4R)-1-(3,4-difluorophenylsulfonyl)-4-fluoro-N-((6-(6-(trifluoromethyl)pyridin-3-yl)pyrimidin-4-yl)methyl)pyrrolidine-2-carboxamide], for which the IC50 turned out to be 109 nM.

For `O=C(NCc1cc(-c2cnc(C(F)(F)F)nc2)ccn1)[C@@H]1[C@@H](F)CCN1S(=O)(=O)c1ccc(F)cc1` [Example 157, (2R,3S)-3-fluoro-1-(4-fluorophenyl)sulfonyl-N-[[4-[2-(trifluoromethyl)pyrimidin-5-yl]-2-pyridyl]methyl]pyrrolidine-2-carboxamide], the IC50 worked out at 103 nM.

As to `O=C(NCc1cc(-c2cnc(C(F)(F)F)nc2)ccc1Cl)[C@@H]1C[C@@H](F)CN1S(=O)(=O)c1ccc(F)cc1` [Example 158, (2S,4R)—N-[[2-chloro-5-[2-(trifluoromethyl)pyrimidin-5-yl]phenyl]methyl]-4-fluoro-1-(4-fluorophenyl)sulfonyl-pyrrolidine-2-carboxamide], the IC50 is 4 nM.

Turning to `O=C(NCc1ccnc(-c2ccc(OC(F)(F)F)cc2)c1)[C@@H]1C[C@@H](F)CN1S(=O)(=O)c1ccc(F)cc1` [Example 159, (2S,4R)-4-fluoro-1-(4-fluorophenyl)sulfonyl-N-[[2-[4-(trifluoromethoxy)phenyl]-4-pyridyl]methyl]pyrrolidine-2-carboxamide], the IC50 worked out at 18 nM.

Turning to `O=C(NCc1ccnc(-c2ccc(OC(F)F)cc2)c1)[C@@H]1C[C@@H](F)CN1S(=O)(=O)c1ccc(F)cc1` [Example 160, (2S,4R)—N-[[2-[4-(difluoromethoxy)phenyl]-4-pyridyl]methyl]-4-fluoro-1-(4-fluorophenyl)sulfonyl-pyrrolidine-2-carboxamide], the IC50 stood at 86 nM.

Regarding `O=C(NCc1cc(-c2ccc(C(F)(F)F)nc2)ccc1F)[C@@H]1C[C@@H](F)CN1S(=O)(=O)c1ccc(F)cc1` [Example 161, (2S,4R)-4-fluoro-N-(2-fluoro-5-(6-(trifluoromethyl)pyridin-3-yl)benzyl)-1-((4-fluorophenyl)sulfonyl)pyrrolidine-2-carboxamide], the IC50 was found to be 9 nM.

For `O=C(NCc1cc(-c2ccc(C(F)(F)F)cn2)ccc1F)[C@@H]1C[C@@H](F)CN1S(=O)(=O)c1ccc(F)cc1` [Example 162, (2S,4R)-4-fluoro-N-(2-fluoro-5-(5-(trifluoromethyl)pyridin-2-yl)benzyl)-1-((4-fluorophenyl)sulfonyl)pyrrolidine-2-carboxamide], the IC50 was determined as 11 nM.

`O=C(NCc1cc(-c2ccc(C(F)(F)F)nn2)ccc1F)[C@@H]1C[C@@H](F)CN1S(=O)(=O)c1ccc(F)cc1` [Example 163, (2S,4R)-4-fluoro-N-(2-fluoro-5-(6-(trifluoromethyl)pyridazin-3-yl)benzyl)-1-((4-fluorophenyl)sulfonyl)pyrrolidine-2-carboxamide]: the IC50 worked out at 43 nM.

Take `N#Cc1ccc(-c2cnc(C(F)(F)F)nc2)cc1CNC(=O)[C@@H]1C[C@@H](F)CN1S(=O)(=O)c1ccc(F)cc1` [Example 164, (2S,4R)—N-(2-cyano-5-(2-(trifluoromethyl)pyrimidin-5-yl)benzyl)-4-fluoro-1-((4-fluorophenyl)sulfonyl)pyrrolidine-2-carboxamide]: the IC50 was 32 nM.

As for `O=C(NCc1cc(Cl)nc(-c2ccc(OC(F)F)cc2)c1)[C@@H]1C[C@@H](F)CN1S(=O)(=O)c1ccc(F)cc1` [Example 165, (2S,4R)—N-((2-chloro-6-(4-(difluoromethoxy)phenyl)pyridin-4-yl)methyl)-4-fluoro-1-((4-fluorophenyl)sulfonyl)pyrrolidine-2-carboxamide], the concentration for half-maximal inhibition (IC50) was 66 nM.

`N#Cc1cnc(-c2ccc(C(F)(F)F)nc2)cc1CNC(=O)[C@@H]1[C@@H](F)CCN1S(=O)(=O)c1ccc(F)cc1` [Example 166, (2R,3S)—N-([5-cyano-2-[6-(trifluoromethyl)pyridin-3-yl]pyridin-4-yl]methyl)-3-fluoro-1-[(4-fluorobenzene)sulfonyl]pyrrolidine-2-carboxamide]: the IC50 worked out at 13 nM.

In the case of `O=C(NCc1cc(-c2cnc(C(F)(F)F)nc2)c(F)cn1)[C@@H]1C[C@@H](F)CN1S(=O)(=O)c1ccc(F)cc1` [Example 167, (2S,4R)-4-fluoro-N-((5-fluoro-4-(2-(trifluoromethyl)pyrimidin-5-yl)pyridin-2-yl)methyl)-1-(4-fluorophenylsulfonyl)pyrrolidine-2-carboxamide], the IC50 was found to be 38 nM.

As to `Cc1cnc(-c2cnc(C(F)(F)F)nc2)cc1CNC(=O)[C@@H]1C[C@@H](F)CN1S(=O)(=O)c1ccc(F)cc1` [Example 169, (2S,4R)-4-fluoro-1-[(4-fluorobenzene)sulfonyl]-N-([5-methyl-2-[2-(trifluoromethyl)pyrimidin-5-yl]pyridin-4-yl]methyl)pyrrolidine-2-carboxamide], the half-inhibitory concentration (IC50) turned out to be 116 nM.

For the compound `COCCOc1cc(-c2ccc(C(F)(F)F)nc2)cc(CNC(=O)[C@@H]2C[C@@H](F)CN2S(=O)(=O)c2ccc(F)cc2)n1` [Example 170, (2S,4R)-4-fluoro-1-(4-fluorophenylsulfonyl)-N-((6′-(2-methoxyethoxy)-6-(trifluoromethyl)-3,4′-bipyridin-2′-yl)methyl)pyrrolidine-2-carboxamide], the IC50 turned out to be 89 nM.

For `O=C(NCc1cc(-c2cnc(C(F)(F)F)nc2)cnc1F)[C@@H]1C[C@@H](F)CN1S(=O)(=O)c1ccc(F)cc1` [Example 171, (2S,4R)-4-fluoro-1-(4-fluorophenyl)sulfonyl-N-[[2-fluoro-5-[2-(trifluoromethyl)pyrimidin-5-yl]-3-pyridyl]methyl]pyrrolidine-2-carboxamide], the IC50 worked out at 211 nM.
